≈ marks a conversion by molar mass, not a printed value.
Legend:
proteasome = experiment: Proteasome activity (Proteasome-GLO) in intact MM1.S cells; assay type: cell-based; details: 3 hr at 37° C.
Method: Proteasome activity was measured in intact MM1.S cells as cleavage of peptide substrates, specific for Trypsin like (TL), Chemotrypsin like (CTL) and Caspase like (PL) activities of the proteasome following treatment with Compound B1, Compound AA or Bortezomib (BTZ) at ˜EC50 concentrations for 3 hr at 37° C. BTZ was used as positive control.
Proteasome activity. The assay was performed only when cell viability is ≥90%. Cells were seeded in 96-well white clear bottom plates and treated with diluted compounds or vehicle control in triplicates for 3 hours at various concentrations. Catalytic activity was measured using three luminogenic proteasome substrates: Suc-LLVY-aminoluciferin (Succinyl-leucine-leucine-valine-tyrosine-aminoluciferin), Z-LRR-aminoluciferin (Z-leucine-arginine-arginine-aminoluciferin) and Z-nLPnLD-aminoluciferin (Z-norleucine-proline-norleucine-aspartate-aminoluciferin) for the chymotrypsin-like, trypsin-like and caspase-like activities, respectively (Proteasome-GLO, Promega). The emitted light was proportional to the proteasomal activity. Catalytic activity was calculated as the percent activity from control vehicle-treated cells.
MM1.S cells, were treated with Compound B1, Compound AA or Bortezomib (BTZ) at various concentrations for 3 hr at 37° C. […] Proteasome activity was measured by cleavage of proteasome-specific peptide substrates for TL, CTL and PL activities.

MM1.S = experiment: Cell viability, ATPlite 1-step, MM cell lines; assay type: cell-based; details: Homo sapiens; MM1.S MM cell line; 48 hours; read-out: Compound EC50
Method: (§1) Cell Viability. The assay was performed only when cell viability was ≥90%. Cells were seeded in 96-well white clear bottom plates at concentration of 100,000 cells/mL and treated with serially diluted compounds or vehicle (DMSO) control in triplicates for 48 hours (h). Cell viability was determined using the ATPlite 1-step assay system (PerkinElmer). The method was based on the production of light caused by the reaction of ATP, which was a marker for cell viability. […] were added to the plates which were read in a plate reader for luminescence. The emitted light is proportional to the ATP concentration. Viability was calculated as the percent of viable cells from control vehicle-treated cells. EC50 was calculated using Prism software.
(§2) Potency of compounds were assessed by viability assay.

U266 = experiment: Cell viability, ATPlite 1-step, MM cell lines; assay type: cell-based; details: Homo sapiens, U-266; U266 MM cell line; 48 hours; read-out: Compound EC50
Method: as §1, §2

MM cell lines = experiment: Cell viability, ATPlite 1-step, MM cell lines; assay type: cell-based; details: cell line printed N/A; read-out: Compound EC50
Method: as §1, §2

[1] = system: poly-ubiquitinated proteins; experiment: Western blot of poly-ubiquitinated proteins in MM1.S cells; assay type: cell-based; details: SDS-PAGE immunoblot
Method: MM1.S cells were treated with Compound B1 (FIG. 1A), Compound AA (FIG. 1B) and Compound E1 (FIG. 1C) for indicated periods of time. Following treatment, the cells were harvested, and the lysates resolved on SDS-PAGE. Transferred membranes were blotted with antibodies as indicated. Actin was used as loading control.
Protein analysis by Western blot. At the end of treatment period, the cells were lysed with M-PER mammalian protein extraction reagent (ThermoFisher Scientific) supplemented with protease inhibitors. Equal protein amounts were resolved on pre-cast SDS-PAGE (ThermoFisher Scientific) and transferred to a PVDF membrane. The membrane was immunoblotted with antibodies as indicated. The following antibodies were used: Ub MAb (SC-8017, Santa-Cruz), ATF4, ATF6, phospho JNK, JNK (Cell signaling); eIF2alpha, phospho eIF2alpha (Novus).

[2] = Kinetic solubility by differential UV absorbance; assay type: physicochemical; details: aqueous buffer, kinetic from dmso stock; DMSO stock diluted in PBS, OD before and after centrifugation
Method: FIG. 3A-3B depict the kinetic solubility of Compound B1 (FIG. 3A) and Compound E1 (FIG. 3B) as measured by differential UV absorbance of the compounds, as performed before and after centrifugation. Soluble concentrations were determined when OD was equivalent between centrifuged and non-centrifuged fractions. Compounds were dissolved from co-solvent stock, and further serially 2-fold diluted in PBS. OD was measured at the maximal absorbance for each compound before (BC) and after (AC) centrifugation, using Spark 20M, Tecan.
Kinetic solubility quantification. Compound B1/Compound E1 DMSO stock was diluted with PBS by serial 2-fold dilutions. Then, the samples were centrifuged for 5 minutes at 17,000 g to precipitate any insoluble compound. Each sample was tested at a single wave length (Compound B1 at […]; Compound E1 at […]) in duplicate before and after centrifugation to assess solubility of the compound. Soluble concentrations were determined when optical density (OD) was equivalent between centrifuged and non-centrifuged fractions.
Kinetic solubility of all Compounds was determined by differential UV absorbance before and after centrifugation. […] Solubility concentration was determined when OD was equivalent between centrifuged and non-centrifuged fractions (FIG. 3A-3B).

| Compound | EC50 (MM1.S) [µM] | EC50 (U266) [µM] | also measured |
| --- | --- | --- | --- |
| CC(C)C[C@H](NC(=O)[C@H](Cc1ccccc1)NC(=O)c1cnccn1)B(O)O [Bortezomib, reference compound] | – | – | inhibition of the enzymatic functions of the proteasome (TL, CTL and PL activities) (proteasome): specifically inhibits CTL activity |
| CN(CCCN=[N+]=[N-])CC(=O)NCC(=O)N1C/C(=C\c2ccc(C#N)cc2)C(=O)/C(=C/c2ccc(C#N)cc2)C1 [Compound B2] | < 0.3 | – | – |
| C#CCN(C)CC(=O)NCC(=O)N1C/C(=C\c2ccc(C#N)cc2)C(=O)/C(=C/c2ccc(C#N)cc2)C1 [Compound B3] | < 0.3 | < 0.3 | – |
| CC(=O)NCC(=O)N1C/C(=C\c2ccc(F)c(C#N)c2)C(=O)/C(=C/c2ccc(F)c(C#N)c2)C1 [Compound B5, N-{2-[(3E,5E)-3,5-bis[(3-cyano-4-fluorophenyl)methylidene]-4-oxopiperidin-1-yl]-2-oxoethyl}acetamide] | – | < 0.3 | – |
| CC(=O)NCC(=O)N1C/C(=C\c2ccc(C#N)cc2)C(=O)/C(=C/c2ccc(C#N)cc2)C1 [Compound B6, N-{2-[(3E,5E)-3,5-bis[(4-cyanophenyl)methylidene]-4-oxopiperidin-1-yl]-2-oxoethyl}acetamide] | < 0.3 | – | – |
| CC(=O)N[C@H](CO)C(=O)N1C/C(=C\c2ccc(C#N)cc2)C(=O)/C(=C/c2ccc(C#N)cc2)C1 [Compound B7, N-[(2R)-1-[(3E,5E)-3,5-bis[(4-cyanophenyl)methylidene]-4-oxopiperidin-1-yl]-3-hydroxy-1-oxopropan-2-yl]acetamide] | – | 0.3 to 1 | – |
| N#Cc1ccc(/C=C2\CN(C(=O)CNC(=O)CO)C/C(=C\c3ccc(C#N)cc3)C2=O)cc1 [Compound B8] | < 0.3 | – | – |
| O=C1/C(=C/c2ccc(Cl)c(Cl)c2)CN(C(=O)CNc2ccccc2)C/C1=C\c1ccc(Cl)c(Cl)c1 [Compound B9] | – | ≥ 1 | – |
| CNCC(=O)N1C/C(=C\c2ccc(Cl)c(Cl)c2)C(=O)/C(=C/c2ccc(Cl)c(Cl)c2)C1 [Compound B10] | – | ≥ 1 | – |
| COCCNCC(=O)N1C/C(=C\c2ccc(Cl)c(Cl)c2)C(=O)/C(=C/c2ccc(Cl)c(Cl)c2)C1 [Compound B11] | – | ≥ 1 | – |
| O=C1/C(=C/c2ccc(Cl)c(Cl)c2)CN(C(=O)CCc2ccccc2)C/C1=C\c1ccc(Cl)c(Cl)c1 [Compound B12] | – | 0.3 to 1 | – |
| CC(=O)NCCC(=O)N1C/C(=C\c2ccc(Cl)c(Cl)c2)C(=O)/C(=C/c2ccc(Cl)c(Cl)c2)C1 [Compound B13] | < 0.3 | – | – |
| O=C1/C(=C/c2ccc(Cl)c(Cl)c2)CN(C(=O)C(O)Cc2ccccc2)C/C1=C\c1ccc(Cl)c(Cl)c1 (centres unmarked) [Compound B14] | – | 0.3 to 1 | – |
| O=C1/C(=C/c2ccc(Cl)c(Cl)c2)CN(C(=O)C(Cc2ccccc2)C(=O)O)C/C1=C\c1ccc(Cl)c(Cl)c1 (centres unmarked) [Compound B15] | – | ≥ 1 | – |
| O=C1/C(=C/c2ccc(Cl)c(Cl)c2)CN(C(=O)C2(Nc3ccccc3)CC2)C/C1=C\c1ccc(Cl)c(Cl)c1 [Compound B16] | < 0.3 | – | – |
| COC(Cc1ccccc1)C(=O)N1C/C(=C\c2ccc(Cl)c(Cl)c2)C(=O)/C(=C/c2ccc(Cl)c(Cl)c2)C1 (centres unmarked) [Compound B17] | – | < 0.3 | – |
| N[C@@H](Cc1ccccn1)C(=O)N1C/C(=C\c2ccc(Cl)c(Cl)c2)C(=O)/C(=C/c2ccc(Cl)c(Cl)c2)C1 [Compound B18] | – | < 0.3 | – |
| CC(=O)N(C)CCC(=O)N1C/C(=C\c2ccc(Cl)c(Cl)c2)C(=O)/C(=C/c2ccc(Cl)c(Cl)c2)C1 [Compound B29] | – | – | EC50 (MM cell lines): ≥ 1 µM |

Now from value to molecule, other results behind:

| EC50 (MM1.S) [µM] | EC50 (U266) [µM] | Compound | also measured |
| --- | --- | --- | --- |
| – | < 0.3 | N[C@@H](Cc1cccc(O)c1)C(=O)N1C/C(=C\c2ccc(Cl)c(Cl)c2)C(=O)/C(=C/c2ccc(Cl)c(Cl)c2)C1 [Compound B19] | – |
| – | < 0.3 | O=C1/C(=C/c2ccc(Cl)c(Cl)c2)CN(C(=O)C2COCCN2)C/C1=C\c1ccc(Cl)c(Cl)c1 (centres unmarked) [Compound B20] | – |
| – | 0.3 to 1 | N[C@@H](Cc1ccccc1)C(=O)N1C/C(=C\c2ccccc2)C(=O)/C(=C/c2ccc(Cl)c(Cl)c2)C1 [Compound B21] | – |
| – | < 0.3 | N[C@@H](Cc1ccccc1)C(=O)N1C/C(=C\c2ccc(Cl)c(Cl)c2)C(=O)/C(=C/c2cc(Cl)ccc2Cl)C1 [Compound B22] | – |
| < 0.3 | – | CC(=O)NC1(C(=O)N2C/C(=C\c3ccc(Cl)c(Cl)c3)C(=O)/C(=C/c3ccc(Cl)c(Cl)c3)C2)CC1 [Compound B23] | – |
| – | 0.3 to 1 | CNC(=O)CCC(=O)N1C/C(=C\c2ccc(Cl)c(Cl)c2)C(=O)/C(=C/c2ccc(Cl)c(Cl)c2)C1 [Compound B24] | – |
| – | < 0.3 | CC(=O)NCC(=O)N1C/C(=C\c2ccc(Cl)c(Cl)c2)C(=O)/C(=C/c2ccc(Cl)c(Cl)c2)C1 [Compound B25] | – |
| ≥ 1 | – | O=C1/C(=C/c2ccc(Cl)c(Cl)c2)CN(C(=O)C2(Nc3ccccc3)CC2)CC1Cc1ccc(Cl)c(Cl)c1 (centres unmarked) [Compound B26] | – |
| – | ≥ 1 | CC(=O)NCCC(=O)N1C/C(=C\c2ccc(Cl)c(Cl)c2)C(=O)C(Cc2ccc(Cl)c(Cl)c2)C1 (centres unmarked) [Compound B27] | – |
| – | < 0.3 | CC(C)C(Nc1ccccc1)C(=O)N1C/C(=C\c2ccc(Cl)c(Cl)c2)C(=O)/C(=C/c2ccc(Cl)c(Cl)c2)C1 (centres unmarked) [Compound B28] | – |
| – | < 0.3 | CNC(=O)CC(=O)N1C/C(=C\c2ccc(Cl)c(Cl)c2)C(=O)/C(=C/c2ccc(Cl)c(Cl)c2)C1 [Compound B30] | – |
| – | < 0.3 | CN(C)C(Cc1ccccc1)C(=O)N1C/C(=C\c2ccc(Cl)c(Cl)c2)C(=O)/C(=C/c2ccc(Cl)c(Cl)c2)C1 (centres unmarked) [Compound B32] | – |
| < 0.3 | – | CN(C)CCS(=O)(=O)N1C/C(=C\c2ccc(C#N)cc2)C(=O)/C(=C/c2ccc(C#N)cc2)C1 [Compound BA] | – |
| < 0.3 | – | CN(C)CCCS(=O)(=O)N1C/C(=C\c2ccc(F)c(C(F)(F)F)c2)C(=O)/C(=C/c2ccc(F)c(C(F)(F)F)c2)C1 [Compound CA] | – |
| – | < 0.3 | COCCS(=O)(=O)N1C/C(=C\c2ccc(Cl)c(Cl)c2)C(=O)/C(=C/c2ccc(Cl)c(Cl)c2)C1 [Compound D1] | – |
| < 0.3 | – | Cc1noc(C)c1/C=C1\CN(S(=O)(=O)CCCN(C)C)C/C(=C\c2c(C)noc2C)C1=O [Compound E1] | accumulation of poly-ubiquitinated proteins [1]: observable accumulation of poly-ubiquitinated proteins; solubility kinetic [2]: 2500 µM (≈ 1160 µg/mL) |
| < 0.3 | – | CN(C)CCCS(=O)(=O)N1C/C(=C\c2ccc(C#N)cc2)C(=O)C(Cc2ccc(C#N)cc2)C1 (centres unmarked) [Compound F1] | – |

— US20200399262A1, “COMPOUNDS FOR INHIBITING PROTEIN DEGRADATION AND METHODS OF USE THEREOF IN THE TREATMENT OF CANCER” (PI Therapeutics Ltd, priority 2018, published 2020)
